How the values were obtained:
[1] = target: T1, GL-7-ACA acylase of P. nitroreducens ATCC 33634 (Pseudomonas nitroreducens, UniProt E0D5C2); experiment: Effect of various inhibitors on the acylase activity; format: biochemical
T1 construct: periplasmic
T1 sequence (E0D5C2 24-556): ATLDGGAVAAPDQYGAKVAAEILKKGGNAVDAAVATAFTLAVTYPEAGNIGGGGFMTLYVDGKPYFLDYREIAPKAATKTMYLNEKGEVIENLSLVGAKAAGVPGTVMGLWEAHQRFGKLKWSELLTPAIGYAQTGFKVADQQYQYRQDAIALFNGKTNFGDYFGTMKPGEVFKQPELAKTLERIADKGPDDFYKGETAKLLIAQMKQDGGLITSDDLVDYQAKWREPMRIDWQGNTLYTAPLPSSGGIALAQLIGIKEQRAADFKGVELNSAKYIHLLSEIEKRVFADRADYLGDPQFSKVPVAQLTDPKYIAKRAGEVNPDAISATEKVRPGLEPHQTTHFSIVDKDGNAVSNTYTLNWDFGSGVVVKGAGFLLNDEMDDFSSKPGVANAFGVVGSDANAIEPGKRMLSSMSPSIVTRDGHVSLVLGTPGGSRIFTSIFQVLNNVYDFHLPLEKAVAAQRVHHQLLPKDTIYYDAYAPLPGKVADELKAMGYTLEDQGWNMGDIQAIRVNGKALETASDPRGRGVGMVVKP
T1 sequence (E0D5C2 25-556 partner): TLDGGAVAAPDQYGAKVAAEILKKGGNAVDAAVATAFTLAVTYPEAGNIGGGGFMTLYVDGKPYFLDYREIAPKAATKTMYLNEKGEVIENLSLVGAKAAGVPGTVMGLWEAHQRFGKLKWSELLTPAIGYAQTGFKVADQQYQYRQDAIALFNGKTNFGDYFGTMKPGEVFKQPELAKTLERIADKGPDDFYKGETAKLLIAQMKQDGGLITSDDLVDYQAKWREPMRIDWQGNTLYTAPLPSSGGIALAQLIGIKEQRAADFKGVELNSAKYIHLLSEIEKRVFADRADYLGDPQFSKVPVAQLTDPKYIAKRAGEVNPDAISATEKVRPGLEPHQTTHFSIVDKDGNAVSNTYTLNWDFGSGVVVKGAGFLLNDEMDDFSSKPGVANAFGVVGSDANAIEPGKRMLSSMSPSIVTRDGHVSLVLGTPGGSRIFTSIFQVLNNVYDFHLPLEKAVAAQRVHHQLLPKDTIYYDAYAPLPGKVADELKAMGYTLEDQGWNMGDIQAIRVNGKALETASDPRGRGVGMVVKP
Protocol: It has been reported that the activity of GL-7-ACA acylases can be inhibited by their own products, e.g., 7-ACA and glutaric acid. Thus, the inhibitory effects of various compounds on the present acylase were tested (Table 4). The compounds were 7-ACA, glutaric acid, glutamate, succinyl-7-ACA, and Ceph C, all of which were used at 20 mM.

[2] = target: T1, GL-7-ACA acylase of P. nitroreducens ATCC 33634; experiment: Substrate profile of GL-7-ACA acylase, whole cells of ATCC 33634; format: biochemical; details: for activity as substrate, in words: cells of ATCC 33634, compared with GL-7-ACA; for relative activity (percentage relative to the activity for GL7-ACA): whole cells of ATCC 33634, 0.2 g/l substrate, 37° C., 3 hr
Protocol: (§1) Colonies forming clear zones were cultivated in Nutrient Broth (Difco, Detroit, Mich.) and tested for GL-7-ACA acylase activity as described by Shibuya et al. (Agric. Biol. Chem. 45: 1561-1567, 1981). The whole-cell suspension of ATCC 33634 in 100 mM acetate buffer (pH 5.0) was used as the acylase source. One unit of the acylase activity was defined as the amount of enzyme that liberates 1 μmole of […] per min.
Cells of ATCC 33634 were used to convert GL-7-ACA and related compounds (Table 2). GL-7-ACA, GL-7-ADCA, and succinyl-7-ACA were prepared according to the method of Shibuya et al. (Agric. Biol. Chem. 45: 1561-1567, 1981).
^a The relative GL7-ACA acylase activity was presented as percentage
relative to the activity for GL7-ACA. Whole cells of ATCC 33634 were
incubated with 0.2 g/l of GL7-ACA, GL7-ADCA, succinyl 7ACA, or Ceph C at […]

[3] = tested on: P. nitroreducens ATCC 33634; experiment: Effect of composition of media on production of GL-7-ACA acylase; format: cell-based, Pseudomonas nitroreducens
Protocol: as §1
To obtain the optimal medium for P. nitroreducens ATCC 33634 cultivation, various media were tested according to the report of Nikolov and Danielsson (Enzyme Microbiol. Technol. 16: 1031-1036, 1994) (Table 1). The cultivation was carried out in 500 ml flasks containing 100 ml of media (Table 1) at 30° C. and 150 rpm for 24 hr. All media were adjusted to pH 7.5 before autoclaving. Yeast extract, casein, peptone, and meat extract were purchased from Difco Laboratories Inc. (Detroit, Mich.).

## CC(=O)OCC1=C(C(=O)O)N2C(=O)[C@@H](N)[C@H]2SC1 [7-ACA, 7-Aminocephalosporanic acid]
[1]; compounds used at 20 mM
  inhibitory effect, in words: strongest inhibitory effects

## CC(=O)OCC1=C(C(=O)O)N2C(=O)[C@@H](NC(=O)CCC[C@@H](N)C(=O)O)[C@H]2SC1 [Ceph C, cephalosporin C]
[2]
  activity as substrate, in words: No activity was detected
  relative activity (percentage relative to the activity for GL7-ACA): not detected

## CC(=O)OCC1=C(C(=O)O)N2C(=O)[C@@H](NC(=O)CCCC(=O)O)[C@H]2SC1 [GL-7-ACA, glutaryl-7-aminocephalo-sporanic acid]
[2]
  relative activity (percentage relative to the activity for GL7-ACA): 100%

## CC1=C(C(=O)O)N2C(=O)[C@@H](NC(=O)CCCC(=O)O)[C@H]2SC1 [GL-7-ADCA, glutaryl-desacetoxy-7-aminocephalosporanic acid]
[2]
  activity as substrate, in words: nearly three times more activity
  relative activity (percentage relative to the activity for GL7-ACA): 294%

## N[C@@H](CCC(=O)O)C(=O)O [Glutamate, glutamate]
[1]
  Relative activity (%) of acylase with inhibitor: < 1%

## O=C(O)CCCC(=O)O [Glutaric acid, glutaric acid]
[3]; glutaric acid at 0.12%
  inhibition of the enzyme activity: up to 50%
[3]; in ATCC 33634
  induction of GL-7-ACA acylase activity: did not induce
  lowest concentration that inhibited the acylase activity: 0.02%

## CC(=O)OCC1=C(C(=O)O)N2C(=O)[C@@H](NC(=O)CCC(=O)O)[C@H]2SC1 [Succinyl-7ACA, succinyl-7-ACA]
[2]
  activity as substrate, in words: No activity was detected
  relative activity (percentage relative to the activity for GL7-ACA): not detected
